These results are taken from US6348445B1, “Biologically active peptides with reduced toxicity in animals and a method for preparing same” (priority 1992, dated 2002).

Where two headings read alike, the source gives them in different places. Where a SMILES comes first, the peptide text is derived from it. The star is where a group is joined. Ibuprofenoyl = CC(C)Cc1ccc(C(C)C(=O)*)cc1; Myristoyl = CCCCCCCCCCCCCC(=O)*; Octanoyl = CCCCCCCC(=O)*

Holding throughout (format): cell-based
Assay [1] deals with P. aeruginosa strain ATCC 27853. To be noted: ATCC 27853. The text has this:
(§1) Table I, which follows, indicates the Minimal Inhibitory Concentration (MIC) in […] of various peptides against S.aureus strain ATCC 25923(S), P. aeruginosa strain ATCC 27853(P), E. coli ATCC strain 25922(E), and C. 4albicans (CA). […] The peptides are unsubstituted at the N-terminal; substituted with an acetyl group at the N-terminal, as indicated by Ac-; substituted with an octanoyl group at the N-terminal, as indicated by Oct-; substituted with spinogosine, as indicated by Sph-; substituted with a succinyl group, as indicated by Suc-; substituted with a hexanoyl group, as indicated by Hex-; substituted with a heptanoyl group, as indicated by Hep-; substituted with a valeryl group, as indicated by Val-; substituted with a myristryl group, as indicated by Myr-; or substituted with an ibuprofyl group, as indicated by Ibu-;
(§2) The procedure for the anti-bacterial assay is based upon the guidelines of the National Committee for Clinical Laboratory Standards, Document M7-T2, Volume 8, No. 8, 1988, which document is entirely incorporated herein by reference.
(§3) Stock solutions of peptides, with and without the appropriate substitutions, were prepared at a concentration of 512 μg/ml in sterile deionized distilled water and stored at −70° C.
(§4) The stock peptide solution was diluted in serial dilutions (1:2) down the wells of a microtiter plate so that the final concentrations of peptides in the wells were 0.25, 0.50, 1, 2, 4, 8, 16, 32, 64, 128 and 256 μg/ml. 1-5×10^5 CFUs/ml of either S. aureus ATCC 25923, E. coli ATCC 25922, P. aeruginosa ATCC 27853, or C. albicans, were added to the wells in full strength Mueller Hinton broth (BBL 11443) from a mid-log culture. The inoculum was standardized spectrophotometrically at 600 nm and was verified by colony counts. The plates were incubated for 16-20 hours at 37° C., and the minimal inhibitory concentration (MIC) for each peptide was determined. Minimal inhibitory concentration is defined as the lowest concentration of peptide which produces a clear well in the microtiter plate. The minimal inhibitory concentration of each of the peptides with and/or without the appropriate substitutions is given in Table I below.
(§5) The in vitro anti-microbial activities of the methane sulfonate derivatives were determined according to the methods described in Examples 1 and 2. The activities against ATCC strains of S. aureus, E. coli, P. aeruginosa, and C. albicans, and the hemolysis of red blood cells were compared to the parent compound (Table IV). The activities for Compound 843 (Oct-SEQ ID NO:143) methane sulfonate against clinical strains of P. aeruginosa isolated from cystic fibrosis patients were compared to the parent compound (Table V). The activity for Compound 469 (Oct-SEQ ID NO:27) methane sulfonate against P. gingivalis was compared to the parent compound (Table VI).

In assay [2] the test system is E. coli ATCC strain 25922. Description: Minimal Inhibitory Concentration, microtiter broth dilution. Conditions: ATCC strain 25922.
From the text: as §1, §2, §3, §4, §5

The next assay has as its system C. albicans.
From the text: as §1, §2, §3, §4

Turning to `CC[C@H](C)[C@H](NC(=O)[C@H](CCCCN)NC(=O)CNC(=O)[C@H](C)NC(=O)[C@@H](NC(=O)[C@H](CCCCN)NC(=O)[C@H](C)NC(=O)[C@@H](NC(=O)[C@H](CCCCN)NC(=O)CNC(=O)[C@H](C)NC(=O)[C@@H](NC(=O)[C@H](CCCCN)NC(=O)[C@H](C)NC(=O)[C@@H](NC(=O)[C@H](CCCCN)NC(=O)CNC(=O)[C@H](C)NC(=O)[C@@H](NC(=O)[C@H](CCCCN)NC(=O)C(C)c1ccc(CC(C)C)cc1)[C@@H](C)CC)[C@@H](C)CC)[C@@H](C)CC)[C@@H](C)CC)[C@@H](C)CC)C(=O)N[C@@H](C)C(N)=O` (stereo partly drawn) [Ibu-(SEQ ID NO: 27)-NH2] (Ibuprofenoyl-KIAGKIAKIAGKIAKIAGKIA-NH2), the “Minimal Inhibitory Concentration P” value in assay [1] worked out at 4 µg/mL. The “Minimal Inhibitory Concentration E” value in assay [2] amounted to 8 µg/mL. In the assay with C. albicans, the “Minimal Inhibitory Concentration CA” value was found to be 128 µg/mL.
In the same order, the values of `CCCCCCCCCCCCCC(=O)N[C@@H](CC(C)C)C(=O)N[C@@H](CCCCN)C(=O)N[C@@H](CCCCN)C(=O)N[C@@H](CC(C)C)C(=O)N[C@@H](CC(C)C)C(=O)N[C@@H](CCCCN)C(=O)N[C@@H](CCCCN)C(=O)N[C@@H](CC(C)C)C(=O)N[C@@H](CCCCN)C(=O)N[C@@H](CCCCN)C(=O)N[C@@H](CC(C)C)C(N)=O` [Myr-(SEQ ID NO: 110)-NH2] (Myristoyl-LKKLLKKLKKL-NH2) are 16 µg/mL, 16 µg/mL and over 256 µg/mL.
For `CCCCCCCCCCCCCC(=O)N[C@@H](CC(C)C)C(=O)N[C@@H](CCCCN)C(=O)N[C@@H](CCCCN)C(=O)N[C@@H](CC(C)C)C(=O)N[C@@H](CC(C)C)C(=O)N[C@@H](CCCCN)C(=O)N[C@@H](CCC(=O)O)C(=O)N[C@@H](CC(C)C)C(=O)N[C@@H](CC(C)C)C(=O)N[C@@H](CCCCN)C(=O)N[C@@H](CC(C)C)C(N)=O` [Myr-(SEQ ID NO: 151)-NH2] (Myristoyl-LKKLLKELLKL-NH2), the “Minimal Inhibitory Concentration P” value in assay [1] was found to be 128 µg/mL. In assay [2], the “Minimal Inhibitory Concentration E” value is 64 µg/mL. Further, the “Minimal Inhibitory Concentration CA” value in the assay with C. albicans was over 256 µg/mL.
Consider `CCCCCCCC(=O)N[C@@H](CC(C)C)C(=O)N[C@@H](CCCCN)C(=O)N[C@@H](CCCCN)C(=O)N[C@@H](CC(C)C)C(=O)N[C@@H](CCCCN)C(=O)N[C@@H](CCCCN)C(=O)N[C@@H](CC(C)C)C(N)=O` [Oct-(SEQ ID NO: 106)-NH2] (Octanoyl-LKKLKKL-NH2), for which the “Minimal Inhibitory Concentration P” value in assay [1] was 32,64 μg/ml. Further, the “Minimal Inhibitory Concentration E” value in assay [2] came out at 128 µg/mL. For the same compound, in the assay on C. albicans (C. albicans, Table I), the “Minimal Inhibitory Concentration CA” value is recorded as 64,128 μg/ml.
As for `CCCCCCCC(=O)N[C@@H](CC(C)C)C(=O)N[C@@H](CC(C)C)C(=O)N[C@@H](CCCCN)C(=O)N[C@@H](CCCCN)C(=O)N[C@@H](CC(C)C)C(=O)N[C@@H](CCCCN)C(=O)N[C@@H](CCCCN)C(=O)N[C@@H](CC(C)C)C(N)=O` [Oct-(SEQ ID NO: 107)-NH2] (Octanoyl-LLKKLKKL-NH2), the “Minimal Inhibitory Concentration P” value in assay [1] turned out to be 256 µg/mL. For the same compound, the “Minimal Inhibitory Concentration E” value in assay [2] was over 256 µg/mL. Further, in the assay on C. albicans, the “Minimal Inhibitory Concentration CA” value is 128 µg/mL.
On to `CCCCCCCC(=O)N[C@@H](CCCCN)C(=O)N[C@@H](CC(C)C)C(=O)N[C@@H](CC(C)C)C(=O)N[C@@H](CCCCN)C(=O)N[C@@H](CCCCN)C(=O)N[C@@H](CC(C)C)C(=O)N[C@@H](CCCCN)C(=O)N[C@@H](CCCCN)C(=O)N[C@@H](CC(C)C)C(N)=O` [Oct-(SEQ ID NO: 108)-NH2] (Octanoyl-KLLKKLKKL-NH2), for which the “Minimal Inhibitory Concentration P” value in assay [1] stood at 4 µg/mL. The “Minimal Inhibitory Concentration E” value in assay [2] turned out to be 64 µg/mL. Moreover, the “Minimal Inhibitory Concentration CA” value in the assay on C. albicans was 64 µg/mL.
As to `CCCCCCCC(=O)N[C@@H](CCCCN)C(=O)N[C@@H](CCCCN)C(=O)N[C@@H](CC(C)C)C(=O)N[C@@H](CC(C)C)C(=O)N[C@@H](CCCCN)C(=O)N[C@@H](CCCCN)C(=O)N[C@@H](CC(C)C)C(=O)N[C@@H](CCCCN)C(=O)N[C@@H](CCCCN)C(=O)N[C@@H](CC(C)C)C(N)=O` [Oct-(SEQ ID NO: 109)-NH2] (Octanoyl-KKLLKKLKKL-NH2), in assay [1], the “Minimal Inhibitory Concentration P” value is 4 µg/mL. For the same compound, the “Minimal Inhibitory Concentration E” value in assay [2] stood at 16 µg/mL. In addition, the “Minimal Inhibitory Concentration CA” value in the assay on C. albicans was found to be 32 µg/mL.
With `CCCCCCCC(=O)N[C@@H](CC(C)C)C(=O)N[C@@H](CCCCN)C(=O)N[C@@H](CCCCN)C(=O)N[C@@H](CC(C)C)C(=O)N[C@@H](CC(C)C)C(=O)N[C@@H](CCCCN)C(=O)N[C@@H](CCCCN)C(=O)N[C@@H](CC(C)C)C(=O)N[C@@H](CCCCN)C(=O)N[C@@H](CCCCN)C(=O)N[C@@H](CC(C)C)C(N)=O` [Oct-(SEQ ID NO: 110)-NH2] (Octanoyl-LKKLLKKLKKL-NH2), the “Minimal Inhibitory Concentration P” value in assay [1] was determined as 4 µg/mL. The “Minimal Inhibitory Concentration E” value in assay [2] was 8 µg/mL. In the assay on C. albicans, the “Minimal Inhibitory Concentration CA” value came out at 32 µg/mL.
In the same order, the values of `CCCCCCCC(=O)N[C@@H](C)C(=O)N[C@@H](CCCCN)C(=O)N[C@@H](CCCCN)C(=O)N[C@@H](CC(C)C)C(=O)N[C@@H](CC(C)C)C(=O)N[C@@H](CCCCN)C(=O)N[C@@H](CCCCN)C(=O)N[C@@H](CC(C)C)C(=O)N[C@@H](CCCCN)C(=O)N[C@@H](CCCCN)C(=O)N[C@@H](CC(C)C)C(N)=O` [Oct-(SEQ ID NO: 111)-NH2] (Octanoyl-AKKLLKKLKKL-NH2) are 8 µg/mL, 32 µg/mL and 32 µg/mL.
In the same order, the values of `CCCCCCCC(=O)N[C@@H](CC(C)C)C(=O)N[C@@H](CC(C)C)C(=O)N[C@@H](CCCCN)C(=O)N[C@@H](CCCCN)C(=O)N[C@@H](CC(C)C)C(=O)N[C@@H](CCCCN)C(=O)N[C@@H](CCCCN)C(=O)N[C@@H](CC(C)C)C(=O)N[C@@H](CC(C)C)C(=O)N[C@@H](CCCCN)C(=O)N[C@@H](CCCCN)C(=O)N[C@@H](CC(C)C)C(N)=O` [Oct-(SEQ ID NO: 113)-NH2] (Octanoyl-LLKKLKKLLKKL-NH2) are 8 µg/mL, 8 µg/mL and 128 µg/mL.
For the compound `CCCCCCCC(=O)N[C@@H](CCCCN)C(=O)N[C@@H](Cc1ccccc1)C(=O)N[C@@H](C)C(=O)N[C@@H](CCCCN)C(=O)N[C@@H](CCCCN)C(=O)N[C@@H](Cc1ccccc1)C(=O)N[C@@H](C)C(N)=O` [Oct-(SEQ ID NO: 118)-NH2] (Octanoyl-KFAKKFA-NH2), the “Minimal Inhibitory Concentration P” value in assay [1] was over 256 µg/mL. Besides, the “Minimal Inhibitory Concentration E” value in assay [2] was over 256 µg/mL. Moreover, the “Minimal Inhibitory Concentration CA” value in the assay on C. albicans was over 256 µg/mL.
As to `CCCCCCCC(=O)N[C@@H](CCCCN)C(=O)N[C@H](C(=O)N[C@@H](C)C(=O)N[C@@H](CCCCN)C(=O)N[C@@H](CCCCN)C(=O)N[C@H](C(=O)N[C@@H](C)C(N)=O)[C@@H](C)CC)[C@@H](C)CC` [Oct-(SEQ ID NO: 119)-NH2] (Octanoyl-KIAKKIA-NH2), the “Minimal Inhibitory Concentration P” value in assay [1] was over 256 µg/mL. For the same compound, the “Minimal Inhibitory Concentration E” value in assay [2] was over 256 µg/mL. Moreover, in the assay with C. albicans, the “Minimal Inhibitory Concentration CA” value is over 256 µg/mL.
In the case of `CCCCCCCC(=O)N[C@@H](CCCNC(=N)N)C(=O)N[C@@H](Cc1ccccc1)C(=O)N[C@@H](C)C(=O)N[C@@H](CCCNC(=N)N)C(=O)N[C@@H](CCCNC(=N)N)C(=O)N[C@@H](Cc1ccccc1)C(=O)N[C@@H](C)C(N)=O` [Oct-(SEQ ID NO: 120)-NH2] (Octanoyl-RFARRFA-NH2), the “Minimal Inhibitory Concentration P” value in assay [1] turned out to be 128 µg/mL. Besides, the “Minimal Inhibitory Concentration E” value in assay [2] was 256 µg/mL. In the assay with C. albicans, the “Minimal Inhibitory Concentration CA” value was 64 µg/mL.
